Test results from patent publication US11555010B2, “Diamide antimicrobial agents” (BROWN UNIVERSITY, priority 2019, dated 2023).
≈ marks a conversion by molar mass, not a printed value.

Columns and labels:
B. subtilis = experiment: Resazurin antimicrobial MIC assay; assay type: cell-based; conditions: Bacillus subtilis, read-out: Apparent MIC Value
Experimental: Bacillus subtilis ATCC 11775 was plated on agar from a 20% glycerol stock solution stored at −80′° C. Inoculated plates were then incubated at 37° C. under aerobic conditions for 16 hours. Single cultures were transferred to Nutrient Broth (NB) and cultured for 16 hours under the same conditions. […] The assay is performed in LB broth. […] Compounds are tested […] for their capacity to inhibit B. subtilis growth. In order to determine growth inhibition, a resazurin whole-cell assay was used (Kuhn, et al., 2014, Medchemcomm 5:1213-1217). Briefly, second-passage bacteria are incubated with inhibitor in a 96-well plate for four hours, then resazurin dye is added and color/fluorescence change is observed. The resazurin is naturally a blue color, but with reductive species produced during bacterial growth, it is reduced to resorufin, which appears pink. Resorufin is also fluorescent and can be measured by a plate-reader. The disclosures of each and every patent, patent application, and publication cited herein are hereby incorporated herein by reference in their entirety.

E. Coli [1] = experiment: Resazurin antimicrobial MIC assay; conditions: Escherichia coli, read-out: Apparent MIC Value
E. coli [2] = conditions: cited from earlier work

MIC (B. subtilis) [µM]	SMILES	also measured
5 (≈ 2.56 µg/mL)	CC(N)C(C(=O)NC1CCCCC1)N(C(=O)c1ccccc1I)C1CCCCC1 (stereo not shown) [Example 2]	–
5 (≈ 2.49 µg/mL)	NCC(C(=O)NC1CCCCC1)N(C(=O)c1ccccc1I)C1CCCCC1 (stereo not shown) [Example 3, N-(3-amino-1-(cyclohexylamino)-1-oxopropan-2-yl)-N-cyclohexyl-2-iodobenzamide]	–
–	O=C(NC1CCCCC1)C(C1CCNCC1)N(C(=O)c1ccccc1I)C1CCCCC1 (stereo not shown) [Example 6, N-cyclohexyl-N-(2-(cyclohexylamino)-2-oxo-1-(piperidin-4-yl)ethyl)-2-iodobenzamide]	MIC (E. Coli [1]): 5 µM (≈ 2.76 µg/mL)
–	CC1=N[C@@H]2[C@@H](O)[C@H](O)[C@@H](CO)O[C@@H]2S1 [NAG-thiazoline]	effect on the viability of E. coli (E. coli [2]): no effect
